Measured values reported in paper PMC4304654 (Bioorganic & medicinal chemistry, 2012).
In brackets after ≈: the same amount, converted by molar mass.

Test: Aqueous solubility in the sodium acetate buffer of the fibrillization assay
Type: physicochemical

solubility [µM] | Structure (SMILES)
> 200 | Nc1scc2c(C(=O)O)nn(-c3ccccc3Cl)c(=O)c12 [Compound 35, 5-Amino-3-(2-chlorophenyl)-4-oxo-3,4-dihydrothieno[3,4-d]pyridazine-1-carboxylic acid]
> 200 | Cc1nn(CC(F)(F)F)c(=O)c2c(N)scc12 [Compound 58, 7-Amino-4-methyl-2-(2,2,2-trifluoroethyl)thieno[3,4-d]pyridazin-1(2H)-one]
80 (≈ 31.6 µg/mL) | Nc1scc2c(C(=O)NC3CC3)nn(-c3ccc(C(F)(F)F)cc3)c(=O)c12 [Compound 47, 5-Amino-N-cyclopropyl-4-oxo-3-(4-(trifluoromethyl)-phenyl)-3,4-dihydrothieno[3,4-d]pyridazine-1-carboxamide]
> 200 | CCOC(=O)c1nn(-c2ccc(F)cc2)c(=O)c2c(N)scc12 [Compound 26, Ethyl 5-amino-3-(4-fluorophenyl)-4-oxo-3,4-dihydrothieno[3,4-d]pyridazine-1-carboxylate]
> 200 | CC(C)NC(=O)c1nn(-c2ccc(O)cc2)c(=O)c2c(N)scc12 [Compound 49, 5-Amino-3-(4-hydroxyphenyl)-N-isopropyl-4-oxo-3,4-dihydrothieno[3,4-d]pyridazine-1-carboxamide]
> 200 | Nc1scc2c(C(=O)O)nn(-c3ccc(O)cc3)c(=O)c12 [Compound 40, 5-Amino-3-(4-hydroxyphenyl)-4-oxo-3,4-dihydrothieno[3,4-d]pyridazine-1-carboxylic acid]
> 200 | Nc1scc2c(C(=O)O)nn(-c3ccc(OC(F)(F)F)cc3)c(=O)c12 [Compound 39, 5-Amino-4-oxo-3-(4-(trifluoromethoxy)phenyl)-3,4-dihydrothieno[3,4-d]pyridazine-1-carboxylic acid]
32 (≈ 11.2 µg/mL) | CCOC(=O)c1nn(-c2cccc(Cl)c2)c(=O)c2c(N)scc12 [Compound 28, Ethyl 5-amino-3-(3-chlorophenyl)-4-oxo-3,4-dihydrothieno-[3,4-d]pyridazine-1-carboxylate]
32 (≈ 10.3 µg/mL) | Nc1scc2c(C(=O)O)nn(-c3cccc(Cl)c3)c(=O)c12 [Compound 36, 5-Amino-3-(3-chlorophenyl)-4-oxo-3,4-dihydrothieno[3,4-d]pyridazine-1-carboxylic acid]
80 (≈ 29.1 µg/mL) | CCOC(=O)c1nn(-c2ccc(Cl)cc2)c(=O)c2c(NC)scc12 [Compound 66, Ethyl 3-(4-chlorophenyl)-5-(methylamino)-4-oxo-3,4-dihydrothieno[3,4-d]pyridazine-1-carboxylate]
12.8 (≈ 4.24 µg/mL) | CCOC(=O)c1nn(-c2ccc(O)cc2)c(=O)c2c(N)scc12 [Compound 32, Ethyl 5-amino-3-(4-hydroxyphenyl)-4-oxo-3,4-dihydrothieno[3,4-d]pyridazine-1-carboxylate]
> 200 | Nc1scc2c(C(=O)O)nn(-c3ccc(F)cc3)c(=O)c12 [Compound 34, 5-Amino-3-(4-fluorophenyl)-4-oxo-3,4-dihydrothieno[3,4-d]pyridazine-1-carboxylic acid]
32 (≈ 12.3 µg/mL) | CCOC(=O)c1nn(-c2ccc(C(F)(F)F)cc2)c(=O)c2c(N)scc12 [Compound 30, Ethyl 5-amino-4-oxo-3-(4-(trifluoromethyl)phenyl)-3,4-dihydrothieno[3,4-d]pyridazine-1-carboxylate]
> 200 | CC(C)n1nc(-c2ccccc2)c2csc(N)c2c1=O [Compound 65, 7-Amino-2-isopropyl-4-phenylthieno[3,4-d]pyridazin-1(2H)-one]
> 200 | Nc1scc2c(C(=O)O)nn(-c3ccc(C(F)(F)F)cc3)c(=O)c12 [Compound 38, 5-Amino-4-oxo-3-(4-(trifluoromethyl)phenyl)-3,4-dihydrothieno[3,4-d]pyridazine-1-carboxylic acid]
12.8 (≈ 5.11 µg/mL) | CCOC(=O)c1nn(-c2ccc(OC(F)(F)F)cc2)c(=O)c2c(N)scc12 [Compound 31, Ethyl 5-amino-4-oxo-3-(4-(trifluoromethoxy)phenyl)-3,4-dihydrothieno[3,4-d]pyridazine-1-carboxylate]
> 200 | CCOC(=O)c1c(C(=O)c2ccccc2)csc1N [Compound 54, Ethyl 2-amino-4-benzoylthiophene-3-carboxylate]
80 (≈ 28.9 µg/mL) | Nc1scc2c(C(=O)NC3CC3)nn(-c3ccccc3Cl)c(=O)c12 [Compound 45, 5-Amino-3-(2-chlorophenyl)-N-cyclopropyl-4-oxo-3,4-dihydrothieno[3,4-d]pyridazine-1-carboxamide]
> 200 | Nc1scc2c(-c3ccccc3)nn(CC(F)(F)F)c(=O)c12 [Compound 64, 7-Amino-4-phenyl-2-(2,2,2-trifluoroethyl)thieno[3,4-d]pyridazin-1(2H)-one]
> 200 | Cc1nn(-c2ccccn2)c(=O)c2c(N)scc12 [Compound 60, 7-Amino-4-methyl-2-(pyridin-2-yl)thieno[3,4-d]pyridazin-1(2H)-one]
12.8 (≈ 4.48 µg/mL) | CCOC(=O)c1nn(-c2ccccc2Cl)c(=O)c2c(N)scc12 [Compound 27, Ethyl 5-amino-3-(2-chlorophenyl)-4-oxo-3,4-dihydrothieno-[3,4-d]pyridazine-1-carboxylate]
80 (≈ 23.3 µg/mL) | Cc1nn(-c2ccc(Cl)cc2)c(=O)c2c(N)scc12 [Compound 63, 7-Amino-2-(4-chlorophenyl)-4-methylthieno[3,4-d]pyridazin-1(2H)-one]
> 200 | Cc1nn(-c2cccnc2)c(=O)c2c(N)scc12 [Compound 61, 7-Amino-4-methyl-2-(pyridin-3-yl)thieno[3,4-d]pyridazin-1(2H)-one]
80 (≈ 29.5 µg/mL) | CC(C)c1ccc(-n2nc(C(=O)NC3CC3)c3csc(N)c3c2=O)cc1 [Compound 50, 5-Amino-N-cyclopropyl-3-(4-isopropylphenyl)-4-oxo-3,4-dihydrothieno[3,4-d]pyridazine-1-carboxamide]
> 200 | CCOC(=O)c1nn(-c2ccc(Cl)cc2)c(=O)c2c1C(O)NC2=O (stereo not drawn) [Compound 69, Ethyl 2-(4-chlorophenyl)-5-hydroxy-1,7-dioxo-2,5,6,7-tetrahydro-1H-pyrrolo[3,4-d]pyridazine-4-carboxylate]
32 (≈ 11.6 µg/mL) | CC(C)NC(=O)c1nn(-c2cccc(Cl)c2)c(=O)c2c(N)scc12 [Compound 46, 5-Amino-3-(3-chlorophenyl)-N-isopropyl-4-oxo-3,4-dihydrothieno[3,4-d]pyridazine-1-carboxamide]
32 (≈ 11.4 µg/mL) | CCOC(=O)c1nn(-c2ccc(C(C)C)cc2)c(=O)c2c(N)scc12 [Compound 33, Ethyl 5-amino-3-(4-isopropylphenyl)-4-oxo-3,4-dihydrothieno[3,4-d]pyridazine-1-carboxylate]
80 (≈ 33 µg/mL) | CC(C)NC(=O)c1nn(-c2ccc(OC(F)(F)F)cc2)c(=O)c2c(N)scc12 [Compound 48, 5-Amino-N-isopropyl-4-oxo-3-(4-(trifluoromethoxy)-phenyl)-3,4-dihydrothieno[3,4-d]pyridazine-1-carboxamide]
80 (≈ 17.9 µg/mL) | Cc1nn(C(C)C)c(=O)c2c(N)scc12 [Compound 57, 7-Amino-2-isopropyl-4-methylthieno[3,4-d]pyridazin-1(2H)-one]
> 200 | Cc1nn(C2CCCCC2)c(=O)c2c(N)scc12 [Compound 59, 7-Amino-2-cyclohexyl-4-methylthieno[3,4-d]pyridazin-1(2H)-one]
